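Briefly, cells in 96-well plates were exposed to five compound concentrations for 48 h, and endpoints were estimated by linear interpolation. GI50 marks 50% less growth.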 Activity calls are given as the source filed them. Cut-off read from the data, not from the text of the source: active = GI50 up to about 1.1 µM and inactive = higher.
Assays:
Assay in all cases: NCI anticancer screen, dose series, 48 h
SN12C = tested on: SN12C
HCT-116 = tested on: HCT-116
SNB-19 = tested on: SNB-19
CCRF-CEM = tested on: CCRF-CEM
UO-31 = tested on: UO-31
ACHN = tested on: ACHN
SR = tested on: SR
NCI-H460 = tested on: NCI-H460
SF-539 = tested on: SF-539
SF-268 = tested on: SF-268
A549 = tested on: A549
SK-MEL-28 = tested on: SK-MEL-28
PC-3 = tested on: PC-3
786-0 = tested on: 786-0
MOLT-4 = tested on: MOLT-4
RPMI-8226 = tested on: RPMI-8226
UACC-257 = tested on: UACC-257
HT-29 = tested on: HT-29
U-251 = tested on: U-251
M14 = tested on: M14
COLO 205 = tested on: COLO 205
IGROV-1 = tested on: IGROV-1
OVCAR-8 = tested on: OVCAR-8
HCT-15 = tested on: HCT-15
T47D = tested on: T47D
NCI/ADR-RES = tested on: NCI/ADR-RES
OVCAR-5 = tested on: OVCAR-5
TK-10 = tested on: TK-10
SF-295 = tested on: SF-295
MCF7 = tested on: MCF7
HOP-62 = tested on: HOP-62
KM12 = tested on: KM12
OVCAR-4 = tested on: OVCAR-4
SK-OV-3 = tested on: SK-OV-3
SK-MEL-5 = tested on: SK-MEL-5
HCC 2998 = tested on: HCC 2998
EKVX = tested on: EKVX
MDA-MB-435 = tested on: MDA-MB-435
K562 = tested on: K562
NCI-H522 = tested on: NCI-H522
SW-620 = tested on: SW-620
Hs-578T = tested on: Hs-578T
SNB-75 = tested on: SNB-75
HL-60 = tested on: HL-60
RXF 393 = tested on: RXF 393
MDA-MB-231 = tested on: MDA-MB-231
Malme-3M = tested on: Malme-3M
OVCAR-3 = tested on: OVCAR-3
NCI-H226 = tested on: NCI-H226
DU-145 = tested on: DU-145
MDA-N = tested on: MDA-N
A498 = tested on: A498
HOP-92 = tested on: HOP-92
NCI-H23 = tested on: NCI-H23
CAKI-1 = tested on: CAKI-1
LOX IMVI = tested on: LOX IMVI
SK-MEL-2 = tested on: SK-MEL-2

COc1cc(C2c3cc4c(cc3[C@@H](Nc3ccccc3)C3CO[C@@H](OC)[C@H]23)OCO4)cc(OC)c1O (some centres undefined)
GI50 (SN12C): 7.36 µM (inactive)
GI50 (HCT-116): 7.38 µM (inactive)
GI50 (SNB-19): 6.07 µM (inactive)
GI50 (CCRF-CEM): 2.76 µM (inactive)
GI50 (UO-31): 3.01 µM (inactive)
GI50 (ACHN): 3.18 µM (inactive)
GI50 (SR): 1.95 µM (inactive)
GI50 (NCI-H460): 1.11 µM (active)
GI50 (SF-539): 5.41 µM (inactive)
GI50 (SF-268): 7.29 µM (inactive)
GI50 (A549): 2.13 µM (inactive)
GI50 (SK-MEL-28): 19.6 µM (inactive)
GI50 (PC-3): 8.81 µM (inactive)
GI50 (786-0): 5.14 µM (inactive)
GI50 (MOLT-4): 0.984 µM (active)
GI50 (RPMI-8226): 3.01 µM (inactive)
GI50 (UACC-257): > 25 µM (inactive)
GI50 (HT-29): 4.82 µM (inactive)
GI50 (U-251): 5.55 µM (inactive)
GI50 (M14): 10.4 µM (inactive)
GI50 (COLO 205): 12.3 µM (inactive)
GI50 (IGROV-1): 20.9 µM (inactive)
GI50 (OVCAR-8): 7.03 µM (inactive)
GI50 (HCT-15): 3.61 µM
GI50 (T47D): 8.36 µM (inactive)
GI50 (NCI/ADR-RES): 14.6 µM (inactive)
GI50 (OVCAR-5): 6.07 µM (inactive)
GI50 (TK-10): 9.46 µM (inactive)
GI50 (SF-295): 3.46 µM (inactive)
GI50 (MCF7): 4.5 µM (inactive)
GI50 (HOP-62): 7.11 µM (inactive)
GI50 (KM12): 5.83 µM (inactive)
GI50 (OVCAR-4): > 25 µM (inactive)
GI50 (SK-OV-3): 9.06 µM (inactive)
GI50 (SK-MEL-5): 8.55 µM (inactive)
GI50 (HCC 2998): 6.9 µM (inactive)
GI50 (EKVX): 20.7 µM (inactive)
GI50 (MDA-MB-435): 9.79 µM (inactive)
GI50 (K562): 6.78 µM (inactive)
GI50 (NCI-H522): 6.58 µM (inactive)
GI50 (SW-620): 6.52 µM (inactive)
GI50 (Hs-578T): 3.21 µM (inactive)
GI50 (SNB-75): 7.41 µM (inactive)
GI50 (HL-60): 2.87 µM (inactive)

CCC#CCCCCCCCCC(F)C(=O)O (centres undefined)
GI50 (SN12C): > 100 µM (inactive)
GI50 (HCT-116): > 100 µM (inactive)
GI50 (SNB-19): > 100 µM (inactive)
GI50 (CCRF-CEM): > 100 µM (inactive)
GI50 (RXF 393): > 100 µM (inactive)
GI50 (UO-31): > 100 µM (inactive)
GI50 (ACHN): > 100 µM (inactive)
GI50 (MDA-MB-231): > 100 µM (inactive)
GI50 (Malme-3M): > 100 µM (inactive)
GI50 (SF-539): > 100 µM (inactive)
GI50 (OVCAR-3): > 100 µM (inactive)
GI50 (SF-268): > 100 µM (inactive)
GI50 (NCI-H226): > 100 µM (inactive)
GI50 (A549): > 100 µM (inactive)
GI50 (SK-MEL-28): > 100 µM (inactive)
GI50 (PC-3): > 100 µM (inactive)
GI50 (786-0): > 100 µM (inactive)
GI50 (MOLT-4): > 100 µM (inactive)
GI50 (RPMI-8226): > 100 µM (inactive)
GI50 (UACC-257): > 100 µM (inactive)
GI50 (HT-29): > 100 µM (inactive)
GI50 (U-251): > 100 µM (inactive)
GI50 (M14): > 100 µM (inactive)
GI50 (COLO 205): > 100 µM (inactive)
GI50 (DU-145): > 100 µM (inactive)
GI50 (IGROV-1): > 100 µM (inactive)
GI50 (OVCAR-8): > 100 µM (inactive)
GI50 (MDA-N): > 100 µM (inactive)
GI50 (HCT-15): > 100 µM
GI50 (T47D): > 100 µM (inactive)
GI50 (A498): > 100 µM (inactive)
GI50 (NCI/ADR-RES): > 100 µM (inactive)
GI50 (OVCAR-5): > 100 µM (inactive)
GI50 (TK-10): > 100 µM (inactive)
GI50 (SF-295): > 100 µM (inactive)
GI50 (MCF7): > 100 µM (inactive)
GI50 (HOP-62): > 100 µM (inactive)
GI50 (KM12): > 100 µM (inactive)
GI50 (OVCAR-4): > 100 µM (inactive)
GI50 (SK-OV-3): > 100 µM (inactive)
GI50 (SK-MEL-5): > 100 µM (inactive)
GI50 (HCC 2998): > 100 µM (inactive)
GI50 (EKVX): > 100 µM (inactive)
GI50 (MDA-MB-435): > 100 µM (inactive)
GI50 (HOP-92): > 100 µM (inactive)
GI50 (K562): > 100 µM (inactive)
GI50 (NCI-H522): > 100 µM (inactive)
GI50 (SW-620): > 100 µM (inactive)
GI50 (NCI-H23): > 100 µM (inactive)
GI50 (CAKI-1): > 100 µM (inactive)
GI50 (Hs-578T): > 100 µM (inactive)
GI50 (SNB-75): > 100 µM (inactive)
GI50 (HL-60): > 100 µM (inactive)
GI50 (LOX IMVI): > 100 µM (inactive)
GI50 (SK-MEL-2): > 100 µM (inactive)

Reference: ChEMBL document CHEMBL1201862, “PubChem BioAssay data set” (2004)
